Results published in the supplement of paper PMC7661543.
± gives the standard deviation of the averaged measurements.

system: SKBR3; test: relative cell number vs DMSO control (72 h) (% of DMSO); higher = less growth inhibition (more cells); details: sgRNA knockout: sgNT, 1000 nM
Protocol: (§1)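 QMAP-Seq: a pool of 5 breast cancer cell lines (ZR-75-1, SKBR3, HCC-38, MDA-MB-231, BT-20), each carrying 12 doxycycline-inducible Cas9 sgRNA perturbations (11 knockouts plus non-targeting sgNT), was treated with compounds for 72 h at four 10-fold doses (10 nM-10 uM or 1 nM-1 uM range). Barcodes were amplified and sequenced, and cell number was interpolated from 293T spike-in standard curves. The result is expressed as % of the median of DMSO wells. Two biological replicates.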

Row | SMILES | relative cell number
1 | CN1CCc2c(c3ccccc3n2Cc2ccc(C(=O)NO)cc2)C1 [TubastatinA] | 86.4 ± 15
2 | CCOc1ccccc1-n1c(C(C)N2CCN(C(=O)COc3ccc(Cl)cc3)CC2)nc2ccccc2c1=O (stereo not given) [Erastin] | 118 ± 53
3 | CN1C(=O)C(Cc2c[nH]c3ccccc23)NC1=S (stereo not given) [Necrostatin1] | 60.4 ± 1.4
4 | O=C1NC(=O)[C@@H](c2cn3c4c(cccc24)CCC3)[C@@H]1c1c[nH]c2ccccc12 [Tivantinib] | 19.5 ± 5.7
5 | CCn1c(=O)c2c(nc(/C=C/c3ccc(OC)c(OC)c3)n2C)n(CC)c1=O [Istradefylline] | 99.5 ± 23
6 | COc1ccc(-c2ccc3c(N4CCOCC4)nc(N4C[C@@H](C)O[C@@H](C)C4)nc3n2)cc1CO | 80.7 ± 2.5
7 | C[C@]12CC[C@@H]3c4ccc(O)cc4C[C@@H](CCCCCCCCC[S+]([O-])CCCC(F)(F)C(F)(F)F)[C@H]3[C@@H]1CC[C@@H]2O (stereo not given in full) [Fulvestrant] | 65.8 ± 26
8 | COC(=O)Nc1nc2cc(C(=O)c3ccccc3)ccc2[nH]1 [Mebendazole] | 10.6 ± 9.4
9 | O=C(NOCC(O)CO)c1cc(Br)c(F)c(F)c1Nc1ccc(I)cc1F (stereo not given) | 112 ± 36
10 | OCc1ccc(-c2ccc(-c3ccc(CO)s3)o2)s1 | 10.9 ± 4.8
11 | CC(=O)Nc1cccc(-n2c(=O)n(C3CC3)c(=O)c3c(Nc4ccc(I)cc4F)n(C)c(=O)c(C)c32)c1 [Trametinib] | 87 ± 36
12 | C=CCn1c(=O)c2cnc(Nc3ccc(N4CCN(C)CC4)cc3)nc2n1-c1cccc(C(C)(C)O)n1 [MK1775] | 29.8 ± 14
13 | S=c1nc[nH]c2nc[nH]c12 [6-Mercaptopurine] | 78.3 ± 21

same assay, conditions: sgRNA knockout: sgNT, 10000 nM

Row | SMILES | relative cell number
14 | Cc1cnc(Nc2ccc(OCCN3CCCC3)cc2)nc1Nc1cccc(S(=O)(=O)NC(C)(C)C)c1 | 16.9 ± 0.89
15 | CN(C)CC[C@H](CSc1ccccc1)Nc1ccc(S(=O)(=O)NC(=O)c2ccc(N3CCN(Cc4ccccc4-c4ccc(Cl)cc4)CC3)cc2)cc1[N+](=O)[O-] [ABT737] | 93.31 ± 0.55
16 | O=P1(N(CCCl)CCCl)NCCCO1 (stereo not given) [Cyclophosphamide] | 93.3 ± 7.1
17 | CCOC(=O)[C@@]1(CCCCCCOc2ccc(Cl)cc2)CO1 [Etomoxir] | 98.3 ± 36
18 | Cc1ccc(Nc2nccc(N(C)c3ccc4c(C)n(C)nc4c3)n2)cc1S(N)(=O)=O [Pazopanib] | 49.1 ± 5.4
19 | N.N.[Cl][Pt][Cl] [Cisplatin] | 110 ± 3.5
20 | Cc1cc2c(C(C)C)c(O)c(O)c(C=O)c2c(O)c1-c1c(C)cc2c(C(C)C)c(O)c(O)c(C=O)c2c1O [Gossypol] | 24.6 ± 2.8
21 | COc1cccc2c1C(=O)c1c(O)c3c(c(O)c1C2=O)C[C@@](O)(C(=O)CO)C[C@@H]3O[C@H]1C[C@H](N)[C@H](O)[C@H](C)O1 [Doxorubicin] | 6.86 ± 0.49
22 | CCC(C)SSc1ncc[nH]1 (stereo not given) [PX12] | 57.7 ± 24
23 | CC(=O)Nc1nc(C)c(S(=O)(=O)Nc2ccc(C(O)(C(F)(F)F)C(F)(F)F)cc2)s1 [SR1001] | 121 ± 3.7
24 | CN1CCc2c(c3ccccc3n2Cc2ccc(C(=O)NO)cc2)C1 [TubastatinA] | 25.7 ± 14
25 | CCOc1ccccc1-n1c(C(C)N2CCN(C(=O)COc3ccc(Cl)cc3)CC2)nc2ccccc2c1=O (stereo not given) [Erastin] | 46 ± 11
26 | CN1C(=O)C(Cc2c[nH]c3ccccc23)NC1=S (stereo not given) [Necrostatin1] | 68.6 ± 3.7
27 | O=C1NC(=O)[C@@H](c2cn3c4c(cccc24)CCC3)[C@@H]1c1c[nH]c2ccccc12 [Tivantinib] | 6.47 ± 2
28 | CCn1c(=O)c2c(nc(/C=C/c3ccc(OC)c(OC)c3)n2C)n(CC)c1=O [Istradefylline] | 112 ± 15
29 | COc1ccc(-c2ccc3c(N4CCOCC4)nc(N4C[C@@H](C)O[C@@H](C)C4)nc3n2)cc1CO | 51.5 ± 6.7
30 | C[C@]12CC[C@@H]3c4ccc(O)cc4C[C@@H](CCCCCCCCC[S+]([O-])CCCC(F)(F)C(F)(F)F)[C@H]3[C@@H]1CC[C@@H]2O (stereo not given in full) [Fulvestrant] | 65.9 ± 19
31 | COC(=O)Nc1nc2cc(C(=O)c3ccccc3)ccc2[nH]1 [Mebendazole] | 7.21 ± 5.9
32 | O=C(NOCC(O)CO)c1cc(Br)c(F)c(F)c1Nc1ccc(I)cc1F (stereo not given) | 83.5 ± 34
33 | OCc1ccc(-c2ccc(-c3ccc(CO)s3)o2)s1 | 5.65 ± 0.36
34 | CC(=O)Nc1cccc(-n2c(=O)n(C3CC3)c(=O)c3c(Nc4ccc(I)cc4F)n(C)c(=O)c(C)c32)c1 [Trametinib] | 58.7 ± 19
35 | C=CCn1c(=O)c2cnc(Nc3ccc(N4CCN(C)CC4)cc3)nc2n1-c1cccc(C(C)(C)O)n1 [MK1775] | 14.7 ± 1.8
36 | S=c1nc[nH]c2nc[nH]c12 [6-Mercaptopurine] | 48.4 ± 25

system: ZR-75-1; test: as above; details: sgRNA knockout: sgNT, 1 nM
Protocol: as §1

Row | SMILES | relative cell number
37 | CC(C)C[C@H](NC(=O)[C@H](CCc1ccccc1)NC(=O)CN1CCOCC1)C(=O)N[C@@H](Cc1ccccc1)C(=O)N[C@@H](CC(C)C)C(=O)[C@@]1(C)CO1 [Carfilzomib] | 73.3 ± 12

same assay, conditions: sgRNA knockout: sgNT, 10 nM

Row | SMILES | relative cell number
38 | Cc1cnc(Nc2ccc(OCCN3CCCC3)cc2)nc1Nc1cccc(S(=O)(=O)NC(C)(C)C)c1 | 105 ± 22
39 | CN(C)CC[C@H](CSc1ccccc1)Nc1ccc(S(=O)(=O)NC(=O)c2ccc(N3CCN(Cc4ccccc4-c4ccc(Cl)cc4)CC3)cc2)cc1[N+](=O)[O-] [ABT737] | 74.8 ± 17
40 | O=P1(N(CCCl)CCCl)NCCCO1 (stereo not given) [Cyclophosphamide] | 83.2 ± 52
41 | CCOC(=O)[C@@]1(CCCCCCOc2ccc(Cl)cc2)CO1 [Etomoxir] | 67.6 ± 37
42 | Cc1ccc(Nc2nccc(N(C)c3ccc4c(C)n(C)nc4c3)n2)cc1S(N)(=O)=O [Pazopanib] | 88.8 ± 3
43 | CC(C)C[C@H](NC(=O)[C@H](CCc1ccccc1)NC(=O)CN1CCOCC1)C(=O)N[C@@H](Cc1ccccc1)C(=O)N[C@@H](CC(C)C)C(=O)[C@@]1(C)CO1 [Carfilzomib] | 89.9 ± 9.1
44 | N.N.[Cl][Pt][Cl] [Cisplatin] | 89.8 ± 18
45 | Cc1cc2c(C(C)C)c(O)c(O)c(C=O)c2c(O)c1-c1c(C)cc2c(C(C)C)c(O)c(O)c(C=O)c2c1O [Gossypol] | 129 ± 19
46 | COc1cccc2c1C(=O)c1c(O)c3c(c(O)c1C2=O)C[C@@](O)(C(=O)CO)C[C@@H]3O[C@H]1C[C@H](N)[C@H](O)[C@H](C)O1 [Doxorubicin] | 50 ± 9.8
47 | CCC(C)SSc1ncc[nH]1 (stereo not given) [PX12] | 116 ± 19
48 | CC(=O)Nc1nc(C)c(S(=O)(=O)Nc2ccc(C(O)(C(F)(F)F)C(F)(F)F)cc2)s1 [SR1001] | 108 ± 41
49 | CN1CCc2c(c3ccccc3n2Cc2ccc(C(=O)NO)cc2)C1 [TubastatinA] | 80 ± 12
50 | CCOc1ccccc1-n1c(C(C)N2CCN(C(=O)COc3ccc(Cl)cc3)CC2)nc2ccccc2c1=O (stereo not given) [Erastin] | 99.6 ± 21
51 | CN1C(=O)C(Cc2c[nH]c3ccccc23)NC1=S (stereo not given) [Necrostatin1] | 76.9 ± 14
52 | O=C1NC(=O)[C@@H](c2cn3c4c(cccc24)CCC3)[C@@H]1c1c[nH]c2ccccc12 [Tivantinib] | 69.2 ± 29
53 | CCn1c(=O)c2c(nc(/C=C/c3ccc(OC)c(OC)c3)n2C)n(CC)c1=O [Istradefylline] | 128 ± 37
54 | COc1ccc(-c2ccc3c(N4CCOCC4)nc(N4C[C@@H](C)O[C@@H](C)C4)nc3n2)cc1CO | 65.9 ± 21
55 | C[C@]12CC[C@@H]3c4ccc(O)cc4C[C@@H](CCCCCCCCC[S+]([O-])CCCC(F)(F)C(F)(F)F)[C@H]3[C@@H]1CC[C@@H]2O (stereo not given in full) [Fulvestrant] | 66.3 ± 28
56 | COC(=O)Nc1nc2cc(C(=O)c3ccccc3)ccc2[nH]1 [Mebendazole] | 71.7 ± 21
57 | O=C(NOCC(O)CO)c1cc(Br)c(F)c(F)c1Nc1ccc(I)cc1F (stereo not given) | 83.5 ± 48
58 | OCc1ccc(-c2ccc(-c3ccc(CO)s3)o2)s1 | 59.9 ± 6
59 | CC(=O)Nc1cccc(-n2c(=O)n(C3CC3)c(=O)c3c(Nc4ccc(I)cc4F)n(C)c(=O)c(C)c32)c1 [Trametinib] | 101 ± 9.6
60 | C=CCn1c(=O)c2cnc(Nc3ccc(N4CCN(C)CC4)cc3)nc2n1-c1cccc(C(C)(C)O)n1 [MK1775] | 138 ± 30
